Results on ten molecules are retold here after patent US20130040908A1, “SUBSTITUTION DERIVATIVES OF N6-BENZYLADENOSINE-5' -MONOPHOSPHATE, METHODS OF PREPARATION THEREOF, USE THEREOF AS MEDICAMENTS, AND THERAPEUTIC PREPARATIONS CONTAINING THESE COMPOUNDS” (BIOAPEX, S.R.O., priority 2010, published 2013).

Experiment [1] concerns K-562 (human erythroleukemia). The experiment is described as follows: Calcein AM cytotoxicity assay, K-562. It is filed as cell-based. The text has this:
(§1) Because toxic compounds negatively influence metabolic processes in cells, many standard cytotoxicity assays are based on measurement of metabolisation rate of various artificial substrates. Resulting product is then quantified e.g. by means of spectrometry. The assays can be easily modified for use in 96-well plates. For evaluation of cytotoxic effect of the novel substituted 9-substituted cytokinin derivatives of this invention, a microtiter assay based on quantification of metabolisation of Calcein AM was used. The assay is widely used in drug screening programs and in chemosensitivity testing. In the living cells, Calcein AM is enzymatically hydrolysed and accumulation of resulting calcein is manifested by green fluorescence.
(§2) Normal human fibroblasts BJ were used as a control for routine screening of the compounds. The cells were kept in Nunc/Corning 80 cm^2 plastic bottles and grown in cell culture medium (DMEM containing 5 g/l glucose, 2 mM glutamine, 100 U/ml penicillin, 100 μg/ml streptomycine, 10% fetal bovine serum and sodium hydrogencarbonate), the compounds were prepared according to the procedure of the present invention.
(§3) The cell suspensions were prepared and diluted according to the particular cell type and the expected target cell density (2.500-30.000 cells per well based on cell growth characteristics) and pippetted (80 μl) into 96-well plates. […] Tested compound was added in total volume of 20 μl of water at time zero. Usually, test compound was evaluated at six 3-fold dilutions. […] All drug concentrations were tested in triplicates. […] At the end of incubation period Calcein AM in PBS was added into final concentration of 1 μg/ml. After another 1 hour of incubation fluorescence (FD) was measured with the Labsystem FIA Reader Fluoroscan Ascent (UK). Growth inhibition (GI) was estimated using the following equitation: GI=(mean FDdrug exposed wells−mean FDblank)/(mean FDcontrol wells−mean FDblank)×100%.

For experiment [2], the system named is G-361 (human malignant melanoma). The experiment is described as follows: Calcein AM cytotoxicity assay, G-361. It is filed as cell-based. The note with it: G-361, 72 hours.
Text: as §1, §2, §3

Experiment [3] has as its system HL-60 (promyelocytic leukemia). The experiment is described as follows: Calcein AM cytotoxicity assay, HL60. It is filed as cell-based, human.
Text: as §1, §2, §3

Another experiment relates to Human lymphocytes. Kind of experiment: Immunosuppressive activity, 3H-thymidine incorporation in concanavalin A activated lymphocytes. It is filed as cell-based. The note with it: 72 hours, [3H]-TdR. The source says: One of the most important parameters of specific cellular immunity is the proliferative response of lymphocytes to antigens or polyclonal mitogens. The majority of normal mammalian peripheral lymphocytes comprise resting cells. Antigens or nonspecific polyclonal mitogens have the capacity to activate lymphoid cells and this is accompanied by dramatic changes of intracellular metabolism (mitochondrial activity, protein synthesis, nucleic acids synthesis, formation of blastic cells and cellular proliferation). […] Variety of in vitro assays was developed to measure proliferative response of lymphocytes. The most commonly used is ^3H-thymidine incorporation method.
During cell proliferation, DNA has to be replicated before the cell is divided into two daughter cells. This close association between cell doublings and DNA synthesis is very attractive for assessing cell proliferation. If labelled DNA precursors are added to the cell culture, cells that are about to divide incorporate the labelled nucleotide into their DNA. Traditionally, those assays usually involve the use of radiolabelled nucleosides, particularly tritiated thymidine ([^3H]-TdR). The amount of [^3H]-TdR incorporated into the cellular DNA is quantified by liquid scintillation counting. Human heparinized peripheral blood was obtained from healthy volunteers by cubital vein punction. The blood was diluted in PBS (1:3) and mononuclear cells were separated by centrifugation in Ficoll-Hypaque density gradient (Pharmacia, 1.077 g/ml) at 2200 rpm for 30 minutes. Following centrifugation, lymphocytes were washed in PBS and resuspended in cell culture medium (RMPI 1640, 2 mM glutamine, 100 U/ml penicillin, 100 μg/ml streptomycin, 10% fetal calf serum and sodium bicarbonate).
The cells were diluted at target density of 1.100.000 cells/ml and were added by pipette (180 μl) into 96-well microtiter plates. Four-fold dilutions of the intended test concentration were added at time zero in 20 μl aliquots to the microtiter plate wells. Usually, test compound was evaluated at six 4-fold dilutions. In routine testing, the highest well concentration was 266.7 μM. All drug concentrations were examined in duplicates. All wells with exception of unstimulated controls were activated with 50 of concanavalin A (25 μg/ml). Incubations of cells with test compounds lasted for 72 hours at 37° C., in 5% CO2 atmosphere and 100% humidity. At the end of incubation period, the cells were assayed by using the [^3H]-TdR:
Cell cultures were incubated with 0.5 μCi (20 μl of stock solution 500 μCi/ml per well for 6 hours at 37° C. and 5% CO2. The automated cell harvester was used to lyse cells in water and adsorb the DNA onto glass-fiber filters in the format of microtiter plate. The DNA incorporated [^3H]-TdR was retained on the filter while unincorporated material passes through. The filters were dried at room temperature overnight, sealed into a sample bag with 10-12 ml of scintillant. The amount of [^3H]-TdR present in each filter (in cpm) was determined by scintillation counting in a Betaplate liquid scintillation counter. The effective dose of immunosuppressant (ED) was calculated using the following equation: ED=(CCPMdrug exposed well/mean CCPMcontrol wells)×100%. The ED50 value, the drug concentration inhibiting proliferation of 50% of lymphocytes, was calculated from the obtained dose response curves.

The next experiment relates to MCF-7 (breast carcinoma). Kind of experiment: Calcein AM cytotoxicity assay, MCF7. The note with it: MCF7, 72 hours. It is filed as cell-based.
Text: as §1, §2, §3

The test system of experiment [4] is CEM (T-lymphoblastoid leukemia). Kind of experiment: Calcein AM cytotoxicity assay, CEM. The settings on record: 72 hours. It is filed as cell-based.
Text: as §1, §2, §3

The test system of experiment [5] is HOS (human osteogenic sarcoma). The experiment is described as follows: Calcein AM cytotoxicity assay, HOS. It is filed as cell-based. The settings on record: 72 hours.
Text: as §1, §2, §3

Experiment [6] deals with Normal human fibroblasts BJ. The experiment is described as follows: Calcein AM cytotoxicity assay, BJ fibroblasts. It is filed as cell-based. The note with it: 72 hours.
Text: as §1, §2, §3

Bounds are passed on as bounds.

Turning to `O=P(O)(O)OC[C@H]1O[C@@H](n2cnc3c(NCc4cccc(F)c4)ncnc32)[C@H](O)[C@@H]1O` [Compound 2, 6-(3-fluorobenzylamino)purine riboside-5′-monophosphate], the GI50 is 7.2 µM in experiment [1] (K-562, 72 hours); 14.6 µM in experiment [2]; 0.83 µM in experiment [3] (HL60, 72 hours); 14.7 µM with MCF-7 (breast carcinoma); 3.2 µM in experiment [4]. For the same molecule, the “Human lymphocytes ED50” value in the experiment on Human lymphocytes amounted to 11.5 µM.

With `O=P(O)(O)OC[C@H]1O[C@@H](n2cnc3c(NCc4ccc(F)cc4)ncnc32)[C@H](O)[C@@H]1O` [Compound 3, 6-(4-fluorobenzylamino)purine riboside-5′-monophosphate], the GI50 in experiment [1] (K-562, 72 hours) is 6.1 µM; in experiment [5], 12.1 µM; in experiment [3] (HL60, 72 hours), 0.69 µM; in the experiment on MCF-7 (breast carcinoma) it was 12.3 µM; in experiment [4], 1.2 µM. Further, the “Human lymphocytes ED50” value with Human lymphocytes was 13.4 µM.

Turning to `Cc1ccccc1CNc1ncnc2c1ncn2[C@@H]1O[C@H](COP(=O)(O)O)[C@@H](O)[C@H]1O` [Compound 12, 6-(2-methylbenzylamino)purine riboside-5′-monophosphate], the GI50 is 3.1 µM in experiment [3] (HL60, 72 hours); 144 µM in the experiment on MCF-7 (breast carcinoma); 11.4 µM in experiment [4]. For the same molecule, the “Human lymphocytes ED50” value with Human lymphocytes worked out at 7.3 µM.

Turning to `Cc1cccc(CNc2ncnc3c2ncn3[C@@H]2O[C@H](COP(=O)(O)O)[C@@H](O)[C@H]2O)c1` [Compound 13, 6-(3-methylbenzylamino)purine riboside-5′-monophosphate], the GI50 in experiment [1] (K-562, 72 hours) is 160 µM; in experiment [3] (HL60, 72 hours), 6.6 µM; with MCF-7 (breast carcinoma), 71.7 µM; in experiment [4], 11.6 µM. For the same molecule, the “Human lymphocytes ED50” value with Human lymphocytes was 7.5 µM.

Regarding `COc1ccccc1CNc1ncnc2c1ncn2[C@@H]1O[C@H](COP(=O)(O)O)[C@@H](O)[C@H]1O` [Compound 15, 6-(2-methoxybenzylamino)purine riboside-5′-monophosphate], the GI50 in experiment [1] (K-562, 72 hours) is 8.4 µM; in experiment [5], 20.1 µM; in experiment [3] (HL60, 72 hours) it was 2.1 µM; with MCF-7 (breast carcinoma), 113 µM; in experiment [4] it was 2.4 µM.

`O=P(O)(O)OC[C@H]1O[C@@H](n2cnc3c(NCc4cccc(O)c4)ncnc32)[C@H](O)[C@@H]1O` [Compound 22, 6-(3-hydroxybenzylamino)purine riboside-5′-monophosphate]: the GI50 in experiment [1] (K-562, 72 hours) is 92.4 µM; in experiment [3] (HL60, 72 hours) it was 19 µM; in the experiment with MCF-7 (breast carcinoma), 108 µM; in experiment [4] it was 49.8 µM. Further, the “Human lymphocytes ED50” value in the experiment on Human lymphocytes stood at 12.8 µM.

`O=P(O)(O)OC[C@H]1O[C@@H](n2cnc3c(NCc4ccc(Cl)c(Cl)c4)ncnc32)[C@H](O)[C@@H]1O` [Compound 25, 6-(3,4-dichlorobenzylamino)purine riboside-5′-monophosphate]: the GI50 in experiment [1] (K-562, 72 hours) is 6.1 µM; in experiment [6] it was 132 µM; in experiment [5] it was 112 µM; in experiment [3] (HL60, 72 hours), 1 µM; in the experiment with MCF-7 (breast carcinoma) it was 82.8 µM; in experiment [4], 3.1 µM.

Take `O=P(O)(O)OC[C@H]1O[C@@H](n2cnc3c(NCc4ccc(F)c(Cl)c4)ncnc32)[C@H](O)[C@@H]1O` [Compound 41, 6-(3-chloro-4-fluorobenzylamino)purine riboside-5′-monophosphate]: the GI50 in experiment [1] (K-562, 72 hours) is 4.3 µM; in experiment [3] (HL60, 72 hours), 3.1 µM; in the experiment with MCF-7 (breast carcinoma) it was 99.1 µM; in experiment [4] it was 1.4 µM.

`Nc1ncnc2c1ncn2[C@@H]1O[C@H](COP(=O)(O)O)[C@@H](O)[C@H]1O` [adenosine-5′-monophosphate, reference compound]: the GI50 in experiment [1] (Homo sapiens, K562, K-562, 72 hours) was > 167 µM; in experiment [6] (Homo sapiens, Fibroblast), > 167 µM; in experiment [5] (Homo sapiens), > 167 µM; in experiment [2] (Homo sapiens), > 167 µM; in experiment [3] (Homo sapiens, HL-60, HL60, 72 hours) it was > 167 µM; with MCF-7 (breast carcinoma) (Homo sapiens) it was > 167 µM. Also, the GI50 in experiment [4] is > 167 µM.

On to “zeatin riboside-5′-monophosphate [reference compound]”, for which the GI50 in experiment [1] (K-562, 72 hours) is > 167 µM; in experiment [6], > 167 µM; in experiment [5], > 167 µM; in experiment [2], > 167 µM; in experiment [3] (HL60, 72 hours), > 167 µM; with MCF-7 (breast carcinoma), > 167 µM. Also, the GI50 in experiment [4] is > 167 µM.
